Data on 12 compounds can be found in the NIST ThermoML archive (doi:10.1021/je8006474).

For data set [1] the following is noted: 101.33 kPa, Liquid, Pycnometric method.
Data set [2] is described as follows: xn = mol fraction of the nth substance listed. Conditions: Pycnometric method.

± gives the expanded uncertainty stated by the source.

As usually defined, the mass density is mass per unit of volume. For `Fc1ccccc1` [fluorobenzene], the mass density in data set [1] (296.2 K) turned out to be 1022 ± 16 kg/m3; in data set [1] (330.1 K) it was 985 ± 16 kg/m3.
Consider `Fc1cccc(F)c1F` [1,2,3-trifluorobenzene], for which the figures for the mass density in data set [1] (296 K) and in data set [1] (331.6 K) were 1292 ± 36 kg/m3 and 1240 ± 36 kg/m3, respectively.
As to `Fc1cc(F)c(F)c(F)c1F` [pentafluorobenzene], the mass density in data set [1] (296.9 K) was found to be 1511 ± 20 kg/m3; in data set [1] (327.6 K), 1453 ± 20 kg/m3.
Regarding `Fc1cccc(F)c1` [1,3-difluorobenzene], the mass density was found to be 1139 ± 36 kg/m3 in data set [1] (296.2 K) and 1094 ± 36 kg/m3 in data set [1] (330.6 K).
`Fc1ccccc1F` [1,2-difluorobenzene]: the mass density is given as 1156 ± 36 kg/m3 in data set [1] (296.2 K) and 1117 ± 36 kg/m3 in data set [1] (331.1 K).
With `Fc1cc(F)c(F)cc1F` [1,2,4,5-tetrafluorobenzene], the mass density in data set [1] (296.7 K) amounted to 1421 ± 36 kg/m3; in data set [1] (327.4 K), 1370 ± 36 kg/m3.
For the compound `Fc1cc(F)cc(F)c1` [1,3,5-trifluorobenzene], the mass density in data set [1] (297.2 K) came out at 1268 ± 36 kg/m3; in data set [1] (324.9 K), 1225 ± 36 kg/m3.
Consider `Fc1ccc(F)c(F)c1` [1,2,4-trifluorobenzene], for which the mass density in data set [1] (296.6 K) came out at 1280 ± 36 kg/m3; in data set [1] (330.7 K), 1247 ± 36 kg/m3.
Regarding `Fc1ccc(F)cc1` [1,4-difluorobenzene], the mass density in data set [1] (296.1 K) was 1146 ± 36 kg/m3; in data set [1] (327.2 K), 1110 ± 36 kg/m3.
For `Fc1cc(F)c(F)c(F)c1` [1,2,3,5-tetrafluorobenzene], the mass density is 1403 ± 37 kg/m3 in data set [1] (296.3 K) and 1352 ± 37 kg/m3 in data set [1] (325.9 K).
As for `Fc1ccc(F)c(F)c1F` [1,2,3,4-tetrafluorobenzene], the values for the mass density in data set [1] (296.4 K) and in data set [1] (327.4 K) were 1408 ± 40 kg/m3 and 1360 ± 40 kg/m3, respectively.
In the case of `Fc1ccc(F)c(F)c1` [1,2,4-trifluorobenzene] + CCn1cc[n+](C)c1.O=S(=O)([N-]S(=O)(=O)C(F)(F)F)C(F)(F)F, the molar volume in data set [2] (362.4 K, Liquid mixture 1, x1 = 0.893) is listed as 0.0001242 ± 5.2e-06 m3/mol; in data set [2] (362.4 K, Liquid mixture 2, x1 = 0.977), 0.0001135 ± 6.2e-06 m3/mol; in data set [2] (367.4 K, Liquid mixture 1, x1 = 0.892), 0.0001247 ± 5.2e-06 m3/mol; in data set [2] (367.4 K, Liquid mixture 2, x1 = 0.977), 0.000114 ± 6.2e-06 m3/mol; in data set [2] (372.4 K, Liquid mixture 1, x1 = 0.891), 0.0001252 ± 5.2e-06 m3/mol; in data set [2] (372.4 K, Liquid mixture 2, x1 = 0.977), 0.0001145 ± 6.2e-06 m3/mol.
